Experimental data from ChEMBL document CHEMBL5523719, “Structure-activity relationship study of new carbazole sulfonamide derivatives as anticancer agents with dual-target mechanism” (Eur J Med Chem, 2024).
Calls of active or inactive are those of the source. No cut-off for these calls is given here.

Columns and labels:
MCF7 [1] = experiment: Induction of apoptosis in human MCF7 cells assessed as multinuclear cells at 5 nM measured after 24 hrs by fluorescent microscopy; assay type: functional
MDA-MB-231 = experiment: Antiproliferation activity against human MDA-MB-231 cells measured after 72 hrs incubation by MTT assay; assay type: functional, cell-based; conditions: MDA-MB-231, 72 h
MCF7 [2] = experiment: Antiproliferation activity against human MCF7 cells measured after 72 hrs incubation by MTT assay; assay type: functional, cell-based; conditions: MCF7, 72 h
MCF7 [3] = experiment: Induction of cell cycle arrest in human MCF7 cells assessed as accumulation of cells at G0/G1 phase at 100 nM measured after 24 hrs by flow cytometry (reference value: 61.73%); assay type: functional
MCF7 [4] = experiment: Induction of apoptosis in human MCF7 cells assessed as late apoptotic cells at 50 nM measured after 48 hrs by AnnexinV/PI double staining assays (reference value: 2.60%); assay type: functional
L02 = experiment: Antiproliferation activity against human L02 cells measured after 72 hrs incubation by MTT assay; assay type: functional, cell-based; conditions: L02, 72 h
MCF7 [5] = experiment: Induction of apoptosis in human MCF7 cells assessed as karyolysis at 1 nM measured after 24 hrs by fluorescent microscopy; assay type: functional, cell-based
MCF7 [6] = experiment: Induction of cell cycle arrest in human MCF7 cells assessed as accumulation of cells at G2/M phase at 25 nM measured after 24 hrs by flow cytometry (reference value: 22.84%); assay type: functional
MCF7 [7] = experiment: Induction of apoptosis in human MCF7 cells assessed as necrotic cells at 12.5 nM measured after 48 hrs by AnnexinV/PI double staining assays (reference value: 0.89%); assay type: functional
[8] = molecular target: Tubulin beta (Homo sapiens) (UniProt P68371+Q9H4B7+Q13509+P04350+Q3ZCM7+P07437+Q13885+Q9BVA1+Q9BUF5+A6NNZ2); experiment: Binding affinity to beta-tubulin colchicine binding site in human MCF7 cells assessed as inhibition of EBI-beta-tubulin adduct band formation preincubated for 2 hrs followed by EBI addition measured after 2 hrs by EBI competition based Western blotting analysis; assay type: cell-based; conditions: dose 12.5-100 nM
MCF7 [9] = experiment: Induction of apoptosis in human MCF7 cells assessed as early apoptotic cells at 50 nM measured after 48 hrs by AnnexinV/PI double staining assays (reference value: 5.32%); assay type: functional
KB = experiment: Antiproliferation activity against human KB cells measured after 72 hrs incubation by MTT assay; assay type: functional, cell-based
MCF7 [10] = experiment: Induction of apoptosis in human MCF7 cells assessed as viable cells at 25 nM measured after 48 hrs by AnnexinV/PI double staining assays (reference value: 91.20%); assay type: functional; conditions: read-out: Activity
MCF7 [11] = experiment: Induction of apoptosis in human MCF7 cells assessed as late apoptotic cells at 6.25 nM measured after 48 hrs by AnnexinV/PI double staining assays (reference value: 2.60%); assay type: functional
HMEC-1 = experiment: Anti-migration activity in human HMEC-1 cells assessed as inhibition of cell migration at 5 nM measured after 48 hrs by Scratching assay; assay type: functional, cell-based
NCI-H460 = experiment: Antiproliferation activity against human NCI-H460 cells measured after 72 hrs incubation by MTT assay; assay type: functional, cell-based; conditions: NCI-H460, 72 h
[12] = molecular target: DNA topoisomerase 2-alpha (Homo sapiens) (UniProt P11388); experiment: Inhibition of human DNA topoisomerase 2 assessed as relaxation of supercoiled pBR322 DNA as substrate at 20 uM incubated for 30 mins by gel staining based electrophoresis analysis
MCF7 [13] = experiment: Induction of apoptosis in human MCF7 cells assessed as early apoptotic cells at 25 nM measured after 48 hrs by AnnexinV/PI double staining assays (reference value: 5.32%); assay type: functional
MCF7 [14] = experiment: Induction of cell cycle arrest in human MCF7 cells assessed as increase in phosphorylation of histone H3 at […] by Western blot analysis; assay type: functional, cell-based; conditions: dose lower 12.5 µM
MCF7 [15] = experiment: Induction of apoptosis in human MCF7 cells assessed as viable cells at 50 nM measured after 48 hrs by AnnexinV/PI double staining assays (reference value: 91.20%); assay type: functional; conditions: read-out: Activity
MCF7 [16] = experiment: Induction of apoptosis in human MCF7 cells assessed as necrotic cells at 50 nM measured after 48 hrs by AnnexinV/PI double staining assays (reference value: 0.89%); assay type: functional
MCF7 [17] = experiment: Induction of apoptosis in human MCF7 cells assessed as viable cells at 6.25 nM measured after 48 hrs by AnnexinV/PI double staining assays (reference value: 91.20%); assay type: functional; conditions: read-out: Activity
[18] = molecular target: DNA topoisomerase 2-alpha (Homo sapiens) (UniProt P11388); experiment: Inhibition of human DNA topoisomerase 2 assessed as relaxation of supercoiled pBR322 DNA as substrate at 200 uM incubated for 30 mins by gel staining based electrophoresis analysis
Tubulin (Homo sapiens) = Tubulin (Homo sapiens) (UniProt P68371+Q9H4B7+P0DPH7+P68366+Q13509+Q71U36+P04350+Q3ZCM7+P07437+P68363+Q9BQE3+Q6PEY2+Q13885+Q9BVA1+Q9BUF5); experiment: Inhibition of microtubule assembly in human HepG2 cells assessed as disrupted microtubule network at 50 uM measured after 24 hrs incubation by anti-alpha-tubulin antibody (green) and Hoechst 33342 (blue) stained nuclei were obtained under microscopy; assay type: cell-based
MCF7 [19] = experiment: Induction of apoptosis in human MCF7 cells assessed as early apoptotic cells at 12.5 nM measured after 48 hrs by AnnexinV/PI double staining assays (reference value: 5.32%); assay type: functional
MIA PaCa-2 = experiment: Antiproliferation activity against human MIA PaCa-2 cells measured after 72 hrs incubation by MTT assay; assay type: functional, cell-based; conditions: MIA PaCa-2, 72 h
MCF7 [20] = experiment: Induction of cell cycle arrest in human MCF7 cells assessed as accumulation of cells at G0/G1 phase at 25 nM measured after 24 hrs by flow cytometry (reference value: 61.73%); assay type: functional
MCF7 [21] = experiment: Induction of apoptosis in human MCF7 cells assessed as necrotic cells at 6.25 nM measured after 48 hrs by AnnexinV/PI double staining assays (reference value: 0.89%); assay type: functional
MCF7 [22] = experiment: Induction of cell cycle arrest in human MCF7 cells assessed as accumulation of cells at G2/M phase at 500 nM measured after 24 hrs by flow cytometry (reference value: 22.84%); assay type: functional

DNA topoisomerase 2-alpha (Homo sapiens), sequence (P11388 whole entry): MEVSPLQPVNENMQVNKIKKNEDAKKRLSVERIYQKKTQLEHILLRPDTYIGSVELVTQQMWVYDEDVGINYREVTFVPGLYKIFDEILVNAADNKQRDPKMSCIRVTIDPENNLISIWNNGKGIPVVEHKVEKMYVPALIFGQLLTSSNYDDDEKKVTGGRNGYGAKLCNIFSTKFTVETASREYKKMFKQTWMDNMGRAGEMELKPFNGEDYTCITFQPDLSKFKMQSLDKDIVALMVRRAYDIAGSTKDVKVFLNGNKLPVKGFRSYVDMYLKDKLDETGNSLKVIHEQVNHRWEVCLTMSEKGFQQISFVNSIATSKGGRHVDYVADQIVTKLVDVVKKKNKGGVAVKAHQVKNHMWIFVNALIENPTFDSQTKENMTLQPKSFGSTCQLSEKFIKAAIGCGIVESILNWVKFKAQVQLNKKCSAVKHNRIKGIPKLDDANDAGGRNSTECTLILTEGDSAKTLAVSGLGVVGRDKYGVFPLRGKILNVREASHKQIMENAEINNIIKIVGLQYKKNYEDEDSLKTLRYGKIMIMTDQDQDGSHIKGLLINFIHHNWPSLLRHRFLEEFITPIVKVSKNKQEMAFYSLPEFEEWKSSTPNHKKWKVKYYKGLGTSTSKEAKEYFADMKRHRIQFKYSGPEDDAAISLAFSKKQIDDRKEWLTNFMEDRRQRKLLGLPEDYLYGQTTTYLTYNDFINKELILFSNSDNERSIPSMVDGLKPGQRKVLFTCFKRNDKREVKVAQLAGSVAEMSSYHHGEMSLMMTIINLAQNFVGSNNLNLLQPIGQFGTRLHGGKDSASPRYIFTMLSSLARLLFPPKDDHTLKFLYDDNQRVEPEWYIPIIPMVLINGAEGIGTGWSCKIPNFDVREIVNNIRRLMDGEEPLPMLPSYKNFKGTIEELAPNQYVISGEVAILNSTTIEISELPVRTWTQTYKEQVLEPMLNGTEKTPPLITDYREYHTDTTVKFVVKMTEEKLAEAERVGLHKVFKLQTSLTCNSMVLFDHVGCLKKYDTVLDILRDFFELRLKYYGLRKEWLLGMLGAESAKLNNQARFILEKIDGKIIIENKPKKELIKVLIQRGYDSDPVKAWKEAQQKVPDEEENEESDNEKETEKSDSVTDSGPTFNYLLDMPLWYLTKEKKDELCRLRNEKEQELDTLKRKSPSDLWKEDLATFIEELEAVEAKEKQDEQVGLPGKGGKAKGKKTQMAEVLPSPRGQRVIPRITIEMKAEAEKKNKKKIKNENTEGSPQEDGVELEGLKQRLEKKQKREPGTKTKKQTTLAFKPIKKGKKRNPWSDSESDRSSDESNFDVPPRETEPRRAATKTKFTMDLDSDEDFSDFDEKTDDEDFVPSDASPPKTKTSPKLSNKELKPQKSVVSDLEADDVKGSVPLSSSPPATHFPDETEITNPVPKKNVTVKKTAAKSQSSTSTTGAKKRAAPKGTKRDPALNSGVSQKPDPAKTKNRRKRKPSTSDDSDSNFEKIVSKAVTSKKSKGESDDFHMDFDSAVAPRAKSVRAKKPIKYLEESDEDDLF

COc1cc(NS(=O)(=O)c2ccc3c(c2)c2ccc(N)cc2n3C)c(OC)cc1Cl
Activity (MCF7 [1]): Active | IC50 (MDA-MB-231): 0.0312 µM | IC50 (MCF7 [2]): 0.0122 µM | Activity (MCF7 [3]): 4.32% | Activity (MCF7 [4]): 14.69% | IC50 (L02): 0.0185 µM | Activity (MCF7 [5]): Active | Activity (MCF7 [6]): 31.9% | Activity (MCF7 [7]): 0.14% | Activity [8]: Active | Activity (MCF7 [9]): 50.98% | IC50 (KB): 0.00945 µM | viability at 0.025 µM (MCF7 [10]): 39.3% | Activity (MCF7 [11]): 7.06% | inhibition (HMEC-1): Active | IC50 (NCI-H460): 0.018 µM | inhibition [12]: inactive | Activity (MCF7 [13]): 46.14% | Activity (MCF7 [14]): Dose-Dependent Effect | viability at 0.05 µM (MCF7 [15]): 34.2% | Activity (MCF7 [16]): 0.08% | viability at 0.00625 µM (MCF7 [17]): 76.1% | inhibition [18]: inactive | inhibition (Tubulin (Homo sapiens)): Active | Activity (MCF7 [19]): 26.99% | IC50 (MIA PaCa-2): 0.0133 µM | Activity (MCF7 [20]): 36.18% | Activity (MCF7 [21]): 0.1% | Activity (MCF7 [22]): 53.2%
